The test system of this assay is HCV. Description: Assay of anti-HCV activity in HCV-infected Huh7.5 cells (intracellular HCV RNA by one-step quantitative RT-PCR). The following applies: Hepatitis C virus; compound at 1 μM; Huh7.5 cells infected with HCV; 96 hrs; intracellular HCV RNA vs viral control; read-out: inhibitory activities (inhibitory levels of the compounds against HCV replication). It counts as cell-based. The method, then: 100 μL Huh7.5 cells were seeded at a density of 1×10^5/mL in a 96-well cell culture plate and incubated in an incubator at 37° C., 5% CO2 and saturated humidity for 6 hrs. Then, while infecting Huh7.5 cells with viral solution containing HCV virus particles, the compounds of the present invention (including all specific compounds listed herein) were added at a concentration of 1 μM, respectively. After continuing incubation for 96 hrs, the total intracellular RNA was extracted separately, and the content of intracellular HCV RNA was measured by one-step quantitative RT-PCR, compared with the RNA level of the viral control, and the inhibition rate of the compounds against HCV was calculated.
Regarding `CN1CCCN(c2ccc(C#N)c(CN3CCC(C(c4ccc(F)cc4)c4ccc(F)cc4)CC3)c2)CC1` [Compound 91, 2-((4-(bis(4-fluorophenyl)methyl)piperidin-1-yl)methyl)-4-(4-methyl-1,4-diazepan-1-yl)benzonitrile], the inhibition at 1 µM is over 75%. As to `Cc1cc(N2CCN(Cc3cc(N(C)CCN(C)C)ccc3C(F)(F)F)CC2)ccc1Cl` [Compound 108, N^1-(3-((4-(4-chloro-3-methylphenyl)piperazin-1-yl)methyl)-4-(trifluoromethyl)phenyl)-N^1,N^2,N^2-trimethylethan-1,2-diamine], the inhibition at 1 µM was over 75%. Turning to `CCN1CCC(N(C)c2ccc(C(F)(F)F)c(CN3CCN(C(c4ccc(Sc5ccccc5)cc4)c4ccc(Sc5ccccc5)cc4)CC3)c2)C1` (centres unmarked) [Compound 101, N-{3-([4-{bis[4-(phenylthio)phenyl]methyl}piperazin-1-yl]methyl)-4-(trifluoromethyl)phenyl}-1-ethyl-N-methylpyrrolidin-3-amine], the inhibition at 1 µM was over 75%. With `CN(C)C1CCN(c2ccc(C(F)(F)F)c(CN3CCN(c4ccc(Cl)cc4)CC3)c2)C1` (centres unmarked) [Compound 29, 1-(3-((4-(4-chlorophenyl)piperazin-1-yl)methyl)-4-(trifluoromethyl)phenyl)-N,N-dimethylpyrrolidin-3-amine], the inhibition at 1 µM was over 75%. Consider `CN1CCCN(c2ccc(C(F)(F)F)c(CN3CCN(C(c4ccc(Cl)cc4)c4ccc(Cl)cc4)CC3)c2)CC1` [Compound 46, 1-(3-((4-(bis(4-chlorophenyl)methyl)piperazin-1-yl)methyl)-4-(trifluoromethyl)phenyl)-4-methyl-1,4-diazepane], for which the inhibition at 1 µM was over 75%. For the molecule `CN(C)CCN(C)c1ccc(C(F)(F)F)c(CN2CCN(c3ccc(Cl)cc3)CC2)c1` [Compound 19, N^1-(3-((4-(4-chlorophenyl)piperazin-1-yl)methyl)-4-(trifluoromethyl)phenyl)-N^1,N^2,N^2-trimethylethan-1,2-diamine], the inhibition at 1 µM is over 75%.

Regarding `CCN(CC)CCN(C)c1ccc(C(F)(F)F)c(CN2CCN(C(c3ccc(Cl)c(Cl)c3)c3ccc(Cl)c(Cl)c3)CC2)c1` [Compound 94, N1-(3-[{4-[bis(3,4-dichlorophenyl)methyl]piperazin-1-yl}methyl]-4-(trifluoromethyl)phenyl)-N2,N2-diethyl-N1-methylethan-1,2-diamine], the inhibition at 1 µM was over 75%. `CN1CCCN(c2ccc(C(F)(F)F)c(CN3CCN(C(c4ccc(Cl)cc4)c4ccccn4)CC3)c2)CC1` (centres unmarked) [Compound 56, 1-(3-((4-((4-chlorophenyl)(pyridin-2-yl)methyl)piperazin-1-yl)methyl)-4-(trifluoromethyl)phenyl)-4-methyl-1,4-diazepane]: the inhibition at 1 µM was in the range of 50 to 75%.

Regarding `CN1CCCN(c2ccc(C(F)(F)F)c(CN3CCC(Cc4ccc(Cl)cc4)CC3)c2)CC1` [Compound 7, 1-(3-((4-(4-chlorobenzyl)piperidin-1-yl)methyl)-4-(trifluoromethyl)phenyl)-4-methyl-1,4-diazepane], the inhibition at 1 µM was in the range of 50 to 75%. As for `CC(c1ccccc1)N1CCN(Cc2cc(N3CCCC(N(C)C)C3)ccc2C#N)CC1` (centres unmarked) [Compound 14, 4-(3-(dimethylamino)piperidin-1-yl)-2-((4-(1-phenylethyl)piperazin-1-yl)methyl)benzonitrile], the inhibition at 1 µM fell in the range of 50 to 75%. In the case of `CN(C)CCN(C)c1ccc(C#N)c(CN2CCN(C(c3ccc(C(C)(C)C)cc3)c3ccc(C(C)(C)C)cc3)CC2)c1` [Compound 82, 2-((4-(bis(4-tert-butylphenyl)methyl)piperazin-1-yl)methyl)-4-((2-(dimethylamino)ethyl)(methyl)amino)benzonitrile], the inhibition at 1 µM was over 75%. In the case of `CCN(C)CCN(C)c1ccc(C#N)c(CN2CCN(C(C)c3cnccn3)CC2)c1` (centres unmarked) [Compound 93, 4-[{2-[ethyl(methyl)amino]ethyl}(methyl)amino)-2-({4-[1-(pyrazin-2-yl)ethyl]piperazin-1-yl}methyl)benzonitrile], the inhibition at 1 µM fell in the range of 50 to 75%. Consider `CC(c1ccc(Br)cc1)N1CCN(Cc2cc(N3CCCN(C)CC3)ccc2C(F)(F)F)CC1` (centres unmarked) [Compound 1, 1-(3-((4-(1-(4-bromophenyl)ethyl)piperazin-1-yl)methyl)-4-(trifluoromethyl)phenyl)-4-methyl-1,4-diazepane], for which the inhibition at 1 µM is over 75%. Take `CN1CCCN(c2ccc(C(F)(F)F)c(CN3CCN(C(c4ccc(Cl)c(Cl)c4)C4CCCCC4)CC3)c2)CC1` (centres unmarked) [Compound 96, 1-[3-({4-[cyclohexyl(3,4-dichlorophenyl)methyl]piperazin-1-yl}methyl)-4-(trifluoromethyl)phenyl]-4-methyl-1,4-diazepane]: the inhibition at 1 µM was over 75%. `CN(CCn1ccnc1)c1ccc(C#N)c(CN2CCN(C(c3ccc(Cl)cc3)c3ccc(Cl)cc3)CC2)c1` [Compound 78, 4-((2-(1H-imidazol-1-yl)ethyl)(methyl)amino)-2-((4-(bis(4-chlorophenyl)methyl)piperazin-1-yl)methyl)benzonitrile]: the inhibition at 1 µM was over 75%.

For the molecule `CN(C)CCN(C)c1ccc(C#N)c(CN2CCC(C(c3ccc(Cl)cc3)c3ccc(Cl)cc3)CC2)c1` [Compound 90, 2-((4-(bis(4-chlorophenyl)methyl)piperidin-1-yl)methyl)-4-((2-(dimethylamino)ethyl)(methyl)amino)benzonitrile], the inhibition at 1 µM was over 75%. The figure for `CCC(c1ccc(Br)cc1)N1CCN(Cc2cc(N(C)CCN(C)C)ccc2C(F)(F)F)CC1` (centres unmarked) [Compound 8, N^1-(3-((4-(1-(4-bromophenyl)propyl)piperazin-1-yl)methyl)-4-(trifluoromethyl)phenyl)-N^1,N^2,N^2-trimethylethan-1,2-diamine] is over 75%; for `CN(C)CCN(C)c1ccc(C(F)(F)F)c(CN2CCC(c3ccc(Cl)c(Cl)c3)CC2)c1` [Compound 42, N^1-(3-((4-(3,4-dichlorophenyl)piperidin-1-yl)methyl)-4-(trifluoromethyl)phenyl)-N^1,N^2,N^2-trimethylethan-1,2-diamine] it is over 75%.

As for `CC(C)c1ccc(C(c2ccc(C(C)C)cc2)N2CCN(Cc3cc(N4CCCN(C)CC4)ccc3C(F)(F)F)CC2)cc1` [Compound 48, 1-(3-((4-(bis(4-isopropylphenyl)methyl)piperazin-1-yl)methyl)-4-(trifluoromethyl)phenyl)-4-methyl-1,4-diazepane], the inhibition at 1 µM is over 75%. The result for `CN(C)CCN(C)c1ccc(C(F)(F)F)c(CN2CCN(c3ccc(Br)cc3)CC2)c1` [Compound 20, N^1-(3-((4-(4-bromophenyl)piperazin-1-yl)methyl)-4-(trifluoromethyl)phenyl)-N^1,N^2,N^2-trimethylethan-1,2-diamine] reads over 75%; that for `CC(c1ccc(C(F)(F)F)cc1)N1CCN(Cc2cc(N(C)CCN(C)C)ccc2C#N)CC1` (centres unmarked) [Compound 15, 4-((2-(dimethylamino)ethyl)(methyl)amino)-2-((4-(1-(4-(trifluoromethyl)phenyl)ethyl)piperazin-1-yl)methyl)benzonitrile], over 75%. On to `CC(c1ccc(Cl)cc1)N1CCN(Cc2cc(N(C)CCN(C)C)ccc2C(F)(F)F)CC1` (centres unmarked) [Compound 9, N^1-(3-((4-(1-(4-chlorophenyl)ethyl)piperazin-1-yl)methyl)-4-(trifluoromethyl)phenyl)-N^1,N^2,N^2-trimethylethan-1,2-diamine], for which the inhibition at 1 µM is over 75%. Turning to `CN(C)CCN(C)c1ccc(C(F)(F)F)c(CN2CCN(C(c3ccc(C(F)(F)F)cc3)c3ccc(C(F)(F)F)cc3)CC2)c1` [Compound 53, N^1-(3-((4-(bis(4-(trifluoromethyl)phenyl)methyl)piperazin-1-yl)methyl)-4-(trifluoromethyl)phenyl)-N^1,N^2,N^2-trimethylethan-1,2-diamine], the inhibition at 1 µM is over 75%. Turning to `CC1CN(C(c2ccc(F)cc2)c2ccc(F)cc2)CCN1Cc1cc(N2CCCN(C)CC2)ccc1C(F)(F)F` (centres unmarked) [Compound 60, 1-(3-((4-(bis(4-fluorophenyl)methyl)-2-methylpiperazin-1-yl)methyl)-4-(trifluoromethyl)phenyl)-4-methyl-1,4-diazepane], the inhibition at 1 µM is over 75%. Take `CN1CCN(c2ccc(C#N)c(CN3CCN(C(c4ccc(Cl)cc4)c4ccc(Cl)cc4)CC3)c2)CC1` [Compound 80, 2-((4-(bis(4-chlorophenyl)methyl)piperazin-1-yl)methyl)-4-(4-methylpiperazin-1-yl)benzonitrile]: the inhibition at 1 µM was over 75%. Take `CN(C)C1CCN(c2ccc(C#N)c(CN3CCN(C(c4ccc(Cl)cc4)c4ccc(Cl)cc4)CC3)c2)C1` (centres unmarked) [Compound 85, 2-((4-(bis(4-chlorophenyl)methyl)piperazin-1-yl)methyl)-4-(3-(dimethylamino)pyrrolidin-1-yl)benzonitrile]: the inhibition at 1 µM is over 75%. Turning to `CCCC1CN(c2ccc(C(F)(F)F)cc2)CCN1Cc1cc(N2CCCN(C)CC2)ccc1C(F)(F)F` (centres unmarked) [Compound 34, 1-methyl-4-(3-((2-propyl-4-(4-(trifluoromethyl)phenyl)piperazin-1-yl)methyl)-4-(trifluoromethyl)phenyl)-1,4-diazepane], the inhibition at 1 µM is over 75%. As for `CN1CCN(c2ccc(C(F)(F)F)c(CN3CCN(C(c4ccc(Cl)cc4)c4ccc(Cl)cc4)CC3)c2)CC1` [Compound 55, 1-(bis(4-chlorophenyl)methyl)-4-(5-(4-methylpiperazin-1-yl)-2-(trifluoromethyl)benzyl)piperazine], the inhibition at 1 µM was over 75%. In the case of `CN(C)C1CCN(c2ccc(C(F)(F)F)c(CN3CCN(c4ccc(Cl)cc4)CC3)c2)CC1` [Compound 27, 1-(3-((4-(4-chlorophenyl)piperazin-1-yl)methyl)-4-(trifluoromethyl)phenyl)-N,N-dimethylpiperidin-4-amine], the inhibition at 1 µM is over 75%.

The record behind these values is patent US11939307B2, “Phenylmethyl-piperazine derivatives and antiviral uses thereof” (INSTITUTE OF MEDICINAL BIOTECHNOLOGY, CHINESE ACADEMY OF …, priority 2019, dated 2024).
